The source of these data is US20250215030A1, “STAT MODULATORS AND USES THEREOF” (Recludix Pharma, Inc., priority 2022, published 2025).

pIC50: −log10 of the molar value.

In assay [1] the target is T1, Recombinant STAT3 protein (STAT3(G127-I722)) (Homo sapiens, UniProt P40763).
T1 construct: STAT3(G127-I722)
The assay is described as follows: STAT3 Fluorescence Polarization (FP) Assay. The settings on record: STAT3(G127-I722) 25 nM, probe 5-FAM-GpYLPQTV-NH2 2 nM, 45-minute incubation. The class given is binding. Summed up:
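Serially diluted compounds (1% DMSO) were mixed with 2 nM fluorescent phosphotyrosine peptide and 25 nM STAT3 construct G127-I722, pH 7.4, incubated 45 min at room temperature. IC50 values from fitted polarization curves are reported as categories A (≤100 nM), B, C, D (>10 μM).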
In general terms: Polarisation of emitted light reports the rotation of a fluorescent probe.

The target of assay [2] is T2, Recombinant STAT6 protein (STAT6(W123-T658)) (Homo sapiens, UniProt P42226).
T2 construct: STAT6(W123-T658)
T2 sequence (P42226 123-658): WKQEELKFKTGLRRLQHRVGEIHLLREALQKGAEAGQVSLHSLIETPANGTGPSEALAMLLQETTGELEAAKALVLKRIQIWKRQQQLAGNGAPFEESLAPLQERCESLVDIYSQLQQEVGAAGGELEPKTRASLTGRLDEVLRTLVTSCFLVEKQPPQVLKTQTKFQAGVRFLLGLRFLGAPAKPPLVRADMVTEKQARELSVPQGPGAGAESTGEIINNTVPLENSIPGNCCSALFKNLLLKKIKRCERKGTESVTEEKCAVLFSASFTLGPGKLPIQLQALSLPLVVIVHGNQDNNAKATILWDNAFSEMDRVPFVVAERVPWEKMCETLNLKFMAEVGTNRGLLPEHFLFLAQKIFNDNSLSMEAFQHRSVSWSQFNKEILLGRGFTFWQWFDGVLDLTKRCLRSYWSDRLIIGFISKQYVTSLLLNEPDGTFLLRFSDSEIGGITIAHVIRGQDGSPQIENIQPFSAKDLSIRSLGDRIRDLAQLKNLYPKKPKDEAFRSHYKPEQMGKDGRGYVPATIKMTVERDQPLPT
The assay is described as follows: STAT6 Fluorescence Polarization (FP) Assay. The class given is binding. The settings on record: STAT6(W123-T658) 250 nM, probe 5-FAM-ApYKPFQDLI-NH2 2 nM, 45-minute incubation. Put shortly:
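Competitive displacement of a fluorescent phosphotyrosine peptide (2 nM) from recombinant STAT6 W123-T658 (250 nM), 45 min at room temperature in 10 mM HEPES pH 7.4, 50 mM NaCl, 2 mM DTT. mP fitted against log compound for IC50, grouped A (≤300 nM) to D (>30 μM).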

T1 sequence (P40763 127-722, species assumed): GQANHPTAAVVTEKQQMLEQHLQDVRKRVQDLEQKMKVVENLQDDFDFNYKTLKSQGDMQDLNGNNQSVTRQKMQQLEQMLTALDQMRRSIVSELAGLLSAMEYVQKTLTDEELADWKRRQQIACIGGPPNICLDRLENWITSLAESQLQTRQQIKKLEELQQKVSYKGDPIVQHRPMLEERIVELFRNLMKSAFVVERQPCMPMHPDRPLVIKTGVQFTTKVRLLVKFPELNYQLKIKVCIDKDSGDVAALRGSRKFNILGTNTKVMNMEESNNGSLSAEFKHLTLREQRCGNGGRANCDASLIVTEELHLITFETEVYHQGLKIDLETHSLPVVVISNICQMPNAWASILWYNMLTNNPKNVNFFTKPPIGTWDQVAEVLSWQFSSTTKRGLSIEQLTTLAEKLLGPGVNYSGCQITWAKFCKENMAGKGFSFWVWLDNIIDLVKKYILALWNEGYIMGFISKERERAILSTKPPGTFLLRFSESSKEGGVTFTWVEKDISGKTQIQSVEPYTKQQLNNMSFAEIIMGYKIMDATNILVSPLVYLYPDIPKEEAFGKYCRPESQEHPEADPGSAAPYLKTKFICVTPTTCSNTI

Take `O=C(N[C@H]1C[C@@H]2C[C@@H]2C[C@H]2CC[C@@H](C(=O)N3CC(n4ccnc4)C3)N2C1=O)c1cc2cc(C(F)(F)P(=O)(O)O)ccc2s1` [Compound 94]: the figures for the pIC50 in assay [1] and in assay [2] were more than 7.00 and 4.52 to 5.52, respectively.
The corresponding values for `O=C(N[C@H]1C[C@@H]2C[C@@H]2C[C@H]2CC[C@@H](C(=O)N3CC(F)(C(=O)N4CCOCC4)C3)N2C1=O)c1cc2cc(C(F)(F)P(=O)(O)O)ccc2s1` [Compound 95, (difluoro(2-(((3S,6S,7aS,8aR,9aR)-3-(3-fluoro-3-(morpholine-4-carbonyl)azetidine-1-carbonyl)-5-oxodecahydro-1H-cyclopropa[d]pyrrolo[1,2-a]azocin-6-yl)carbamoyl)benzo[b]thiophen-5-yl)methyl)phosphonic acid] are 6.00 to 7.00 and 4.52 to 5.52.
The corresponding values for `O=C(N[C@H]1C[C@@H]2C[C@@H]2C[C@H]2CC[C@@H](C(=O)N3CC(C4CCOCC4)C3)N2C1=O)c1cc2cc(C(F)(F)P(=O)(O)O)ccc2s1` [Compound 96, (difluoro(2-(((3S,6S,7aS,8aR,9aR)-5-ox0-3-(3-(tetrahydro-2H-pyran-4-yl)azetidine-1-carbonyl)decahydro-1H-cyclopropa[d]pyrrolo[1,2-a]azocin-6-yl)carbamoyl)benzo[b]thiophen-5-yl)methyl)phosphonic acid] are 6.00 to 7.00 and 4.52 to 5.52.
The corresponding values for `O=C(N[C@H]1C[C@@H]2C[C@@H]2C[C@H]2CC[C@@H](C(=O)N3CC(c4ccccn4)C3)N2C1=O)c1cc2cc(C(F)(F)P(=O)(O)O)ccc2s1` [Compound 97, (difluoro(2-(((3S,6S,7aS,8aR,9aR)-5-ox0-3-(3-(pyridin-2-yl)azetidine-1-carbonyl)decahydro-1H-cyclopropa[d]pyrrolo[1,2-a]azocin-6-yl)carbamoyl)benzo[b]thiophen-5-yl)methyl)phosphonic acid] are more than 7.00 and 4.52 to 5.52.
Regarding `O=C(N[C@H]1C[C@@H]2C[C@@H]2C[C@H]2CC[C@@H](C(=O)N3CC(c4cccnc4)C3)N2C1=O)c1cc2cc(C(F)(F)P(=O)(O)O)ccc2s1` [Compound 100, (difluoro(2-(((3S,6S,7aS,8aR,9aR)-5-ox0-3-(3-(pyridin-3-yl)azetidine-1-carbonyl)decahydro-1H-cyclopropa[d]pyrrolo[1,2-a]azocin-6-yl)carbamoyl)benzo[b]thiophen-5-yl)methyl)phosphonic acid], the pIC50 in assay [1] is more than 7.00; in assay [2], 4.52 to 5.52.
The corresponding values for `CC(C(N)=O)c1cc(-c2ccccc2)ccc1NC(=O)[C@@H]1CC[C@@H]2C[C@H]3C[C@H]3C[C@H](NC(=O)c3cc4cc(C(F)(F)P(=O)(O)O)ccc4s3)C(=O)N21` (stereo partly shown) [Compound 101] are 6.00 to 7.00 and 5.52 to 6.52.
The corresponding values for `COC1CN(C(=O)C2CN(C(=O)[C@@H]3CC[C@@H]4C[C@H]5C[C@H]5C[C@H](NC(=O)c5cc6cc(C(F)(F)P(=O)(O)O)ccc6s5)C(=O)N43)C2)C1` [Compound 102, (difluoro(2-(((3S,6S,7aS,8aR,9aR)-3-(3-(3-methoxyazetidine-1-carbonyl)azetidine-1-carbonyl)-5-oxodecahydro-1H-cyclopropa[d]pyrrolo[1,2-a]azocin-6-yl)carbamoyl)benzo[b]thiophen-5-yl)methyl)phosphonic acid] are more than 7.00 and 4.52 to 5.52.
The corresponding values for `O=C(N[C@H]1C[C@@H]2C[C@@H]2C[C@H]2CC[C@@H](C(=O)N3CC(c4nn[nH]n4)C3)N2C1=O)c1cc2cc(C(F)(F)P(=O)(O)O)ccc2s1` [Compound 103, ((2-(((3S,6S,7aS,8aR,9aR)-3-(3-(2H-tetrazol-5-yl)azetidine-1-carbonyl)-5-oxodecahydro-1H-cyclopropa[d]pyrrolo[1,2-a]azocin-6-yl)carbamoyl)benzo[b]thiophen-5-yl)difluoromethyl)phosphonic acid] are 6.00 to 7.00 and 5.52 to 6.52.
For the compound `O=C(N[C@H]1C[C@@H]2C[C@@H]2C[C@H]2CC[C@@H](C(=O)N3CCN(C(=O)c4cn[nH]c4)CC3)N2C1=O)c1cc2cc(C(F)(F)P(=O)(O)O)ccc2s1` [Compound 104, ((2-(((3S,6S,7aS,8aR,9aR)-3-(4-(1H-pyrazole-4-carbonyl)piperazine-1-carbonyl)-5-oxodecahydro-1H-cyclopropa[d]pyrrolo[1,2-a]azocin-6-yl)carbamoyl)benzo[b]thiophen-5-yl)difluoromethyl)phosphonic acid], the pIC50 in assay [1] was more than 7.00; in assay [2], 5.52 to 6.52.
The corresponding values for `O=C(N[C@H]1C[C@@H]2C[C@@H]2C[C@H]2CC[C@@H](C(=O)N3CCN(C(=O)c4cc[nH]n4)CC3)N2C1=O)c1cc2cc(C(F)(F)P(=O)(O)O)ccc2s1` [Compound 105, ((2-(((3S,6S,7aS,8aR,9aR)-3-(4-(1H-pyrazole-3-carbonyl)piperazine-1-carbonyl)-5-oxodecahydro-1H-cyclopropa[d]pyrrolo[1,2-a]azocin-6-yl)carbamoyl)benzo[b]thiophen-5-yl)difluoromethyl)phosphonic acid] are 6.00 to 7.00 and 5.52 to 6.52.
The corresponding values for `O=C(N[C@H]1C[C@H]2C[C@H]2C[C@H]2CC[C@@H](C(=O)N3CC(n4ccnc4)C3)N2C1=O)c1cc2cc(C(F)(F)P(=O)(O)O)ccc2s1` [Compound 107, ((2-(((3S,6S,7aR,8aS,9aR)-3-(3-(1H-imidazol-1-yl)azetidine-1-carbonyl)-5-oxodecahydro-1H-cyclopropa[d]pyrrolo[1,2-a]azocin-6-yl)carbamoyl)benzo[b]thiophen-5-yl)difluoromethyl)phosphonic acid] are more than 7.00 and 4.52 to 5.52.
The corresponding values for `O=C(N[C@H]1C[C@@H]2C[C@@H]2C[C@H]2CC[C@@H](C(=O)N3CC(N4CCS(=O)(=O)CC4)C3)N2C1=O)c1cc2cc(C(F)(F)P(=O)(O)O)ccc2s1` [Compound 108, ((2-(((3S,6S,7aS,8aR,9aR)-3-(3-(1,1-dioxidothiomorpholino)azetidine-1-carbonyl)-5-oxodecahydro-1H-cyclopropa[d]pyrrolo[1,2-a]azocin-6-yl)carbamoyl)benzo[b]thiophen-5-yl)difluoromethyl)phosphonic acid] are more than 7.00 and 4.52 to 5.52.
With `O=C(N[C@H]1C[C@@H]2C[C@@H]2C[C@H]2CC[C@@H](C(=O)N3CC(C(=O)N4CC[C@@H](O)C4)C3)N2C1=O)c1cc2cc(C(F)(F)P(=O)(O)O)ccc2s1` [Compound 109, (difluoro(2-(((3S,6S,7aS,8aR,9aR)-3-(3-((R)-3-hydroxypyrrolidine-1-carbonyl)azetidine-1-carbonyl)-5-oxodecahydro-1H-cyclopropa[d]pyrrolo[1,2-a]azocin-6-yl)carbamoyl)benzo[b]thiophen-5-yl)methyl)phosphonic acid], the pIC50 in assay [1] was more than 7.00; in assay [2], 4.52 to 5.52.
On to `CC1(O)CCN(C2CN(C(=O)[C@@H]3CC[C@@H]4C[C@H]5C[C@H]5C[C@H](NC(=O)c5cc6cc(C(F)(F)P(=O)(O)O)ccc6s5)C(=O)N43)C2)CC1` [Compound 110, (difluoro(2-(((3S,6S,7aS,8aR,9aR)-3-(3-(4-hydroxy-4-methylpiperidin-1-yl)azetidine-1-carbonyl)-5-oxodecahydro-1H-cyclopropa[d]pyrrolo[1,2-a]azocin-6-yl)carbamoyl)benzo[b]thiophen-5-yl)methyl)phosphonic acid], for which the pIC50 in assay [1] was 6.00 to 7.00; in assay [2], 4.52 to 5.52.

As a reminder, the pIC50 is −log10 of the IC50, conventionally taken in molar units.
